Measurements taken from ChEMBL document CHEMBL1201861, “Genomics of Drug Sensitity in Cancer screening data, Wellcome Trust Sanger Institute”.

What was measured:
CaR-1 = assay: cells; format: functional, cell-based; conditions: Homo sapiens;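 note: growth inhibition of human CaR-1 cancer cells, read out with a cell viability assay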
Description: SANGER: Inhibition of human CaR-1 cell growth in a cell viability assay.

D-392MG = assay: cells; format: functional, cell-based; conditions: Homo sapiens
DMS-273 = assay: cells; format: functional, cell-based; conditions: Homo sapiens
Description: SANGER: Inhibition of human DMS-273 cell growth in a cell viability assay.

Daoy = assay: cells; format: functional, cell-based; conditions: Homo sapiens;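 note: daoy cell growth inhibition, read out as cell viability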
Description: SANGER: Inhibition of human Daoy cell growth in a cell viability assay.

EFO-27 = assay: cells; format: functional, cell-based; conditions: Homo sapiens;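 note: growth inhibition of EFO-27 cells, read out with a cell viability assay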
Description: SANGER: Inhibition of human EFO-27 cell growth in a cell viability assay.

FaDu = assay: cells; format: functional, cell-based; conditions: Homo sapiens;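 note: cell viability readout of growth inhibition in FaDu cells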
Description: SANGER: Inhibition of human FADU cell growth in a cell viability assay.

GAMG = assay: cells; format: functional, cell-based; conditions: Homo sapiens;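 note: cell growth inhibition measured by a viability assay in the GAMG human cell line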
Description: SANGER: Inhibition of human GAMG cell growth in a cell viability assay.

HCC1569 = assay: cells; format: functional, cell-based; conditions: Homo sapiens;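 note: growth inhibition of human HCC1569 cells, read out with a cell viability assay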
Description: SANGER: Inhibition of human HCC1569 cell growth in a cell viability assay.

HGC-27 = assay: cells; format: functional, cell-based; conditions: Homo sapiens;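 note: growth inhibition of human HGC-27 cells, read out in a cell viability assay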
Description: SANGER: Inhibition of human HGC-27 cell growth in a cell viability assay.

HLE = assay: cells; format: functional, cell-based; conditions: Homo sapiens;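 note: growth inhibition of human HLE cells, read out by a cell viability assay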
Description: SANGER: Inhibition of human HLE cell growth in a cell viability assay.

HT1197 = assay: cells; format: functional, cell-based, HT-1197; conditions: Homo sapiens
Description: SANGER: Inhibition of human HT-1197 cell growth in a cell viability assay.

IMR-5 = assay: cells; format: functional, cell-based; conditions: Homo sapiens;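 note: growth inhibition of human IMR-5 cells, read out with a cell viability assay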
Description: SANGER: Inhibition of human IMR-5 cell growth in a cell viability assay.

KARPAS-422 = assay: cells; format: functional, cell-based; conditions: Homo sapiens
Description: SANGER: Inhibition of human KARPAS-422 cell growth in a cell viability assay.

KMS-12-PE = assay: cells; format: functional, cell-based; conditions: Homo sapiens;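 note: growth inhibition of human KMS-12-PE cells, measured with a cell viability assay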
Description: SANGER: Inhibition of human KMS-12-PE cell growth in a cell viability assay.

KOSC-2 = assay: cells; format: functional, cell-based; conditions: Homo sapiens;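 note: growth inhibition of KOSC-2 cells, read out by a cell viability assay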
Description: SANGER: Inhibition of human KOSC-2 cell growth in a cell viability assay.

KYSE-520 cell line = assay: cells; format: functional, cell-based; conditions: Homo sapiens;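 note: growth inhibition of human KYSE-520 cells, read out with a viability assay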
Description: SANGER: Inhibition of human KYSE-520 cell growth in a cell viability assay.

LN-405 = assay: cells; format: functional, cell-based; conditions: Homo sapiens
Description: SANGER: Inhibition of human LN-405 cell growth in a cell viability assay.

LP-1 = assay: cells; format: functional, cell-based; conditions: Homo sapiens;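 note: growth inhibition of human LP-1 cells, with the read-out taken from a cell viability assay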
Description: SANGER: Inhibition of human LP-1 cell growth in a cell viability assay.

LoVo = assay: cells; format: functional, cell-based; conditions: Homo sapiens;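 note: growth inhibition of human LoVo cells, read out with a cell viability assay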
Description: SANGER: Inhibition of human LoVo cell growth in a cell viability assay.

MC-CAR = assay: cells; format: functional, cell-based; conditions: Homo sapiens;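 note: growth inhibition of the human MC-CAR cell line, read out by a cell viability assay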
Description: SANGER: Inhibition of human MC-CAR cell growth in a cell viability assay.

MDA-MB-415 = assay: cells; format: functional, cell-based; conditions: Homo sapiens
NCCIT = assay: SANGER: Inhibition of human NCCIT cell growth in a cell viability assay.; format: functional, cell-based
NCI-H1522 = assay: cells; format: functional, cell-based; conditions: Homo sapiens;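 note: growth inhibition of NCI-H1522 cells, read out with a cell viability assay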
Description: SANGER: Inhibition of human NCI-H1522 cell growth in a cell viability assay.

NCI-H1623 = assay: cells; format: functional, cell-based; conditions: Homo sapiens;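 note: cell viability assay used as the read-out for growth inhibition of NCI-H1623 cells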
Description: SANGER: Inhibition of human NCI-H1623 cell growth in a cell viability assay.

NCI-H1792 = assay: cells; format: functional, cell-based; conditions: Homo sapiens;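 note: growth inhibition of human NCI-H1792 cells, read out as cell viability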
Description: SANGER: Inhibition of human NCI-H1792 cell growth in a cell viability assay.

NCI-H1793 = assay: cells; format: functional, cell-based; conditions: Homo sapiens;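 note: cell growth inhibition, read out by a cell viability assay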
Description: SANGER: Inhibition of human NCI-H1793 cell growth in a cell viability assay.

NCI-H1882 = assay: cells; format: functional, cell-based; conditions: Homo sapiens;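 note: growth inhibition of the cell line, determined with a viability assay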
Description: SANGER: Inhibition of human NCI-H1882 cell growth in a cell viability assay.

NCI-H2087 = assay: cells; format: functional, cell-based; conditions: Homo sapiens;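 note: growth inhibition determined with a cell viability readout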
Description: SANGER: Inhibition of human NCI-H2087 cell growth in a cell viability assay.

NCI-H2141 = assay: cells; format: functional, cell-based; conditions: Homo sapiens;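 note: growth inhibition of human NCI-H2141 cells, read out with a cell viability assay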
Description: SANGER: Inhibition of human NCI-H2141 cell growth in a cell viability assay.

NCI-H2452 = assay: cells; format: functional, cell-based; conditions: Homo sapiens;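 note: growth inhibition of NCI-H2452 cells, read out with a cell viability assay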
Description: SANGER: Inhibition of human NCI-H2452 cell growth in a cell viability assay.

NCI-H345 = assay: cells; format: functional, cell-based; conditions: Homo sapiens;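 note: growth inhibition of NCI-H345 cells measured with a cell viability assay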
Description: SANGER: Inhibition of human NCI-H345 cell growth in a cell viability assay.

NCI-H716 = assay: cells; format: functional, cell-based; conditions: Homo sapiens;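 note: growth inhibition of human NCI-H716 cells, measured by a cell viability assay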
Description: SANGER: Inhibition of human NCI-H716 cell growth in a cell viability assay.

PANC-03-27 = assay: cells; format: functional, cell-based; conditions: Homo sapiens
Description: SANGER: Inhibition of human PANC-03-27 cell growth in a cell viability assay.

RPMI-6666 = assay: cells; format: functional, cell-based; conditions: Homo sapiens
Description: SANGER: Inhibition of human RPMI-6666 cell growth in a cell viability assay.

RT-112 = assay: cells; format: functional, cell-based; conditions: Homo sapiens
Description: SANGER: Inhibition of human RT-112 cell growth in a cell viability assay.

SIG-M5 = assay: cells; format: functional, cell-based; conditions: Homo sapiens;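 note: cell viability assay read-out, measuring how strongly growth of cultured human SIG-M5 cells is inhibited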
Description: SANGER: Inhibition of human SIG-M5 cell growth in a cell viability assay.

SIMA = assay: cells; format: functional, cell-based; conditions: Homo sapiens;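 note: growth inhibition of SIMA cells, measured with a cell viability readout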
Description: SANGER: Inhibition of human SIMA cell growth in a cell viability assay.

SJRH30 = assay: cells; format: functional, cell-based; conditions: Homo sapiens;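 note: growth inhibition of human SJRH30 cells, read out with a cell viability assay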
Description: SANGER: Inhibition of human SJRH30 cell growth in a cell viability assay.

SK-N-AS = assay: cells; format: functional, cell-based; conditions: Homo sapiens;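 note: growth inhibition of human SK-N-AS cells, measured with a cell viability assay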
Description: SANGER: Inhibition of human SK-N-AS cell growth in a cell viability assay.

SN12C = assay: cells; format: functional, cell-based; conditions: Homo sapiens;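 note: growth inhibition of human SN12C cells, measured by a cell viability assay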
Description: SANGER: Inhibition of human SN12C cell growth in a cell viability assay.

SNU-C1 = assay: cells; format: functional, cell-based; conditions: Homo sapiens;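 note: growth inhibition of SNU-C1 human cells, read out by a cell viability assay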
Description: SANGER: Inhibition of human SNU-C1 cell growth in a cell viability assay.

SW1088 = assay: cells; format: functional, cell-based; conditions: Homo sapiens;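 note: growth inhibition of human SW1088 cells, read out by a cell viability assay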
Description: SANGER: Inhibition of human SW1088 cell growth in a cell viability assay.

SW13 = assay: cells; format: functional, cell-based; conditions: Homo sapiens;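 note: IC50 is inhibition of SW13 cell growth, read out with a cell viability assay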
Description: SANGER: Inhibition of human SW13 cell growth in a cell viability assay.

SW1463 = assay: cells; format: functional, cell-based; conditions: Homo sapiens;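 note: growth inhibition of SW1463 cells, determined with a cell viability assay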
Description: SANGER: Inhibition of human SW1463 cell growth in a cell viability assay.

SW837 = assay: cells; format: functional, cell-based; conditions: Homo sapiens;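 note: growth inhibition of SW837 cells, determined with a cell viability assay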
Description: SANGER: Inhibition of human SW837 cell growth in a cell viability assay.

SW948 = assay: cells; format: functional, cell-based; conditions: Homo sapiens;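 note: growth inhibition of SW948 cells, read out with a cell viability assay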
Description: SANGER: Inhibition of human SW948 cell growth in a cell viability assay.

T84 = assay: cells; format: functional, cell-based; conditions: Homo sapiens;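 note: growth inhibition measured with a cell viability readout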
Description: SANGER: Inhibition of human T84 cell growth in a cell viability assay.

5637 = assay: cells; format: functional, cell-based; conditions: Homo sapiens
Description: SANGER: Inhibition of human 5637 cell growth in a cell viability assay.

639-V = assay: cells; format: functional, cell-based; conditions: Homo sapiens;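 note: growth inhibition of 639-V cells, read out with a cell viability assay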
Description: SANGER: Inhibition of human 639-V cell growth in a cell viability assay.

769-P = assay: cells; format: functional, cell-based; conditions: Homo sapiens
Description: SANGER: Inhibition of human 769-P cell growth in a cell viability assay.

786-0 = assay: cells; format: functional, cell-based; conditions: Homo sapiens
Description: SANGER: Inhibition of human 786-0 cell growth in a cell viability assay.

8505C = assay: cells; format: functional, cell-based; conditions: Homo sapiens
Description: SANGER: Inhibition of human 8505C cell growth in a cell viability assay.

A-427 = assay: cells; format: functional, cell-based; conditions: Homo sapiens;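 note: growth inhibition of human A-427 cells, read out by a cell viability assay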
Description: SANGER: Inhibition of human A427 cell growth in a cell viability assay.

ABC-1 = assay: cells; format: functional, cell-based; conditions: Homo sapiens;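 note: growth inhibition of human ABC-1 cells, read out by a cell viability assay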
Description: SANGER: Inhibition of human ABC-1 cell growth in a cell viability assay.

ARH-77 = assay: cells; format: functional, cell-based; conditions: Homo sapiens;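 note: growth inhibition of ARH-77 cells, read out by a cell viability assay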
Description: SANGER: Inhibition of human ARH-77 cell growth in a cell viability assay.

BXPC-3 = assay: cells; format: functional, cell-based; conditions: Homo sapiens;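 note: growth inhibition of human BxPC-3 cells, read out by a cell viability assay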
Description: SANGER: Inhibition of human BxPC-3 cell growth in a cell viability assay.

C-33-A = assay: cells; format: functional, cell-based; conditions: Homo sapiens;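 note: cell viability assay measuring growth inhibition of C-33-A cells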
Description: SANGER: Inhibition of human C-33-A cell growth in a cell viability assay.

CAL-27 = assay: cells; format: functional, cell-based; conditions: Homo sapiens;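 note: Viability-based readout, IC50 reflecting inhibition of CAL-27 cell growth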
Description: SANGER: Inhibition of human CAL-27 cell growth in a cell viability assay.

CAL-62 = assay: cells; format: functional, cell-based; conditions: Homo sapiens;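 note: growth inhibition of CAL-62 cells, read out with a cell viability assay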
Description: SANGER: Inhibition of human CAL-62 cell growth in a cell viability assay.

THP-1 = assay: cells; format: functional, cell-based; conditions: Homo sapiens;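 note: growth inhibition of THP-1 cells, read out via a cell viability assay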
Description: SANGER: Inhibition of human THP-1 cell growth in a cell viability assay.

UMC-11 = assay: cells; format: functional, cell-based; conditions: Homo sapiens;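 note: growth inhibition of UMC-11 cells, read out with a cell viability assay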
Description: SANGER: Inhibition of human UMC-11 cell growth in a cell viability assay.

WM-115 = assay: cells; format: functional, cell-based; conditions: Homo sapiens
Description: SANGER: Inhibition of human WM-115 cell growth in a cell viability assay.

WSU-NHL = assay: cells; format: functional, cell-based; conditions: Homo sapiens;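 note: growth inhibition of human WSU-NHL cells, read out with a cell viability assay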
Description: SANGER: Inhibition of human WSU-NHL cell growth in a cell viability assay.

CAPAN-1 = assay: cells; format: functional, cell-based; conditions: Homo sapiens;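 note: growth suppression of CAPAN-1 cells, read out by a cell viability assay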
Description: SANGER: Inhibition of human CAPAN-1 cell growth in a cell viability assay.

Measured: IC50

CC(O)(CS(=O)(=O)c1ccc(F)cc1)C(=O)Nc1ccc(C#N)c(C(F)(F)F)c1 (centres undefined) [BICALUTAMIDE]
> 1020 nM: all assays above
